For test [1], the target named is T1, Bcl-2-like protein 10 (Homo sapiens, UniProt Q9HD36).
T1 sequence (Q9HD36 whole entry): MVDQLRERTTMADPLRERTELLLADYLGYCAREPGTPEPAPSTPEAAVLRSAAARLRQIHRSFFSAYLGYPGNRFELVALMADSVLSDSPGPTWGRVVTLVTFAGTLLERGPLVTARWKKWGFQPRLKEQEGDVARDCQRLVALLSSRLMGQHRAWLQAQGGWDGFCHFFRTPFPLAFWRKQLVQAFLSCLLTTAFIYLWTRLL
The test is described as follows: Concentration-response of Bcl-B inhibitors by biochemical FP with TR3 (AID 1243). The test is classed as functional.

A short description of test [2]: CCR5-tropic HIV-1 fusion blockers – cell-based, CCR5-tropic Env, dose response (AID 2279). The test is classed as functional.
Test [3] concerns the target Genome polyprotein (dengue virus type 2, UniProt P29990). The test is described as follows: flavivirus cap methylation enzyme inhibition – biochemical, confirmation dose response, primary screen (AID 588689). The test is classed as functional.
The target in test [4] is Induced myeloid leukemia cell differentiation protein Mcl-1 (Homo sapiens, UniProt Q07820). The class given is functional.
Chain of Induced myeloid leukemia cell differentiation protein Mcl-1 (Q07820 whole entry): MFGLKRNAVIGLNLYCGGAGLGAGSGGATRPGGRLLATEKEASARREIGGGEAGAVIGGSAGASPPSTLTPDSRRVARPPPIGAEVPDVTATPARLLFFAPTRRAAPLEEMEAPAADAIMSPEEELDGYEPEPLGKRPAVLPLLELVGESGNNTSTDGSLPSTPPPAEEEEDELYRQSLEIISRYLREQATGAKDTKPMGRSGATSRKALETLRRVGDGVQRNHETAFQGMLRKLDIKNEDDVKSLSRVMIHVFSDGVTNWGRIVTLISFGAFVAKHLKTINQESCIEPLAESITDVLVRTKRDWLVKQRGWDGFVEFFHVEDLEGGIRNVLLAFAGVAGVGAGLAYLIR
Test [5] has as its target FAD-linked sulfhydryl oxidase ALR (Homo sapiens, UniProt P55789). The test is described as follows: ALR-catalysed DTT oxidation blockers – biochemical, H2O2 detection, luminescence, cherry-pick, dose response (AID 493248).
Test [6] relates to Vero. The test is described as follows: viability of Vero cells under compound – cytotoxicity control for flavivirus capping enzyme inhibitors (AID 588742). Particulars: Chlorocebus sabaeus. The class given is functional.
The target in test [7] is Neuropeptide Y receptor type 2 (Homo sapiens, UniProt P49146). The class given is functional, cell-based.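 Further: HEK293 cells expressing the receptor and a CNG channel; stimulus was NPY near EC95 followed by isoproterenol to raise cAMP; antagonist potency measured as restoring cAMP signal that NPY suppresses.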
Chain of Neuropeptide Y receptor type 2 (P49146 whole entry): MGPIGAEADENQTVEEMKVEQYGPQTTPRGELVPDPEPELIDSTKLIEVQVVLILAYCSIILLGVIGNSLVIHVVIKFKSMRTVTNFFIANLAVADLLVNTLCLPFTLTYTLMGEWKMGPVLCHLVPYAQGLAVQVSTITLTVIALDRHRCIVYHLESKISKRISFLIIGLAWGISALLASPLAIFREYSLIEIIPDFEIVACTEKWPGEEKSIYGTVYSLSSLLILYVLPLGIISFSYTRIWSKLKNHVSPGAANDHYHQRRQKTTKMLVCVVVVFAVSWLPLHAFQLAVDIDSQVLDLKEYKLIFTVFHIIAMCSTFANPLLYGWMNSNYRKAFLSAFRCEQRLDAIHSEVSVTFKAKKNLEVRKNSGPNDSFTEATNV
For test [8], the target named is Neuropeptide Y receptor type 1 (Homo sapiens, UniProt P25929). The class given is functional.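 Further: HEK293 cells with a CNG channel challenged with NPY then isoproterenol; potency as antagonist that reverses NPY suppression of cAMP signal.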
Chain of Neuropeptide Y receptor type 1 (P25929 whole entry): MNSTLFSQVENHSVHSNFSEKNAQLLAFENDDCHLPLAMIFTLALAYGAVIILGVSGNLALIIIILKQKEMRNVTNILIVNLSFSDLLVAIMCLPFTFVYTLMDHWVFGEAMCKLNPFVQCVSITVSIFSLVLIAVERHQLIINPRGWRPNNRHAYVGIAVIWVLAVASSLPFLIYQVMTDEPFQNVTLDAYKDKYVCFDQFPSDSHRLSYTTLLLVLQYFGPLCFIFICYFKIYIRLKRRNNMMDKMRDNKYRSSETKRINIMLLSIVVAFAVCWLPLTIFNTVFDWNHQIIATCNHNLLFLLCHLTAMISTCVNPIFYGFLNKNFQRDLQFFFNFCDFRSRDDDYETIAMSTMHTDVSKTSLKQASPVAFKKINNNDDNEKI
The target of test [9] is G2/mitotic-specific cyclin-B1 (Homo sapiens, UniProt P14635). The test is described as follows: Counterscreen assay for inhibitors of Wee1 degradation: dose response cell-based assay to identify inhibitors of cyclin B degradation. [Related pubchem assays: 1410, 1321 ]. The test is classed as functional. For orientation: The purpose of a counterscreen is to sort out artefacts and off-target activity.
Chain of G2/mitotic-specific cyclin-B1 (P14635 whole entry): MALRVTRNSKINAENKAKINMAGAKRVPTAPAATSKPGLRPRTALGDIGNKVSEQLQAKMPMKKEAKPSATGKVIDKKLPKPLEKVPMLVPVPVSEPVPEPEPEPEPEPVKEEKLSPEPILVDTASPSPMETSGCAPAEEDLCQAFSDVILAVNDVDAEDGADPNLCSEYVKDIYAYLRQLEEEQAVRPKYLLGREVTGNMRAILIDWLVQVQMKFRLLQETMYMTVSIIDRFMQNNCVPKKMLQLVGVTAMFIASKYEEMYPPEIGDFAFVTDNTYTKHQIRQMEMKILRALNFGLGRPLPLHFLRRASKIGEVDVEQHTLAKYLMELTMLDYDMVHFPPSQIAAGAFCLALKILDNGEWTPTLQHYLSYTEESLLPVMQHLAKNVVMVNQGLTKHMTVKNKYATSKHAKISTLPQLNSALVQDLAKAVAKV

Test [10] deals with Wee1-like protein kinase (Homo sapiens, UniProt P30291). The test is described as follows: Dose Response Cell-based Assay for Inhibitors of Wee1 Degradation. [Related pubchem assays: 1410, 1321 ]. The class given is functional.
Chain of Wee1-like protein kinase (P30291 whole entry): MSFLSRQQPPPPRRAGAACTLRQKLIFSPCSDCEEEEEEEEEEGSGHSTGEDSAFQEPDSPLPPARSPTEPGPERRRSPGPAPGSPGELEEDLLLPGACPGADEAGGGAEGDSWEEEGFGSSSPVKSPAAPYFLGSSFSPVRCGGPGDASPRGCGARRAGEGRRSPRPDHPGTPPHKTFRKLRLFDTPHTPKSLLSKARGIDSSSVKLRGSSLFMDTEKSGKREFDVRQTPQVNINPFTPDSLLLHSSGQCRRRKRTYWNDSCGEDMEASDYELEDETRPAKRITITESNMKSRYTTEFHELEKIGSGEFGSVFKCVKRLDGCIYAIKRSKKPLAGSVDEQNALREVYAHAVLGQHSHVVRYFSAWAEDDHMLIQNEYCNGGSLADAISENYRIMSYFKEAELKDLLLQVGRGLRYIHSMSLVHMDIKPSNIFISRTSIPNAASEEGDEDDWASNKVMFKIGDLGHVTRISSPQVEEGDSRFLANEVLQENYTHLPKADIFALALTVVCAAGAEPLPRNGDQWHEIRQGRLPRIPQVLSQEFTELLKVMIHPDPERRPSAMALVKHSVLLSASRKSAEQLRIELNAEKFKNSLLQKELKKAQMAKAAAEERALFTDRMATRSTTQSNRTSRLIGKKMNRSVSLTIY
The target in test [11] is Beta-galactosidase (Escherichia coli, UniProt Q8VNN2). The test is described as follows: Dose response counterscreen for EBI2 assay utilizing the enzyme, b-galactosidase. The class given is functional.
Chain of Beta-galactosidase (Q8VNN2 whole entry): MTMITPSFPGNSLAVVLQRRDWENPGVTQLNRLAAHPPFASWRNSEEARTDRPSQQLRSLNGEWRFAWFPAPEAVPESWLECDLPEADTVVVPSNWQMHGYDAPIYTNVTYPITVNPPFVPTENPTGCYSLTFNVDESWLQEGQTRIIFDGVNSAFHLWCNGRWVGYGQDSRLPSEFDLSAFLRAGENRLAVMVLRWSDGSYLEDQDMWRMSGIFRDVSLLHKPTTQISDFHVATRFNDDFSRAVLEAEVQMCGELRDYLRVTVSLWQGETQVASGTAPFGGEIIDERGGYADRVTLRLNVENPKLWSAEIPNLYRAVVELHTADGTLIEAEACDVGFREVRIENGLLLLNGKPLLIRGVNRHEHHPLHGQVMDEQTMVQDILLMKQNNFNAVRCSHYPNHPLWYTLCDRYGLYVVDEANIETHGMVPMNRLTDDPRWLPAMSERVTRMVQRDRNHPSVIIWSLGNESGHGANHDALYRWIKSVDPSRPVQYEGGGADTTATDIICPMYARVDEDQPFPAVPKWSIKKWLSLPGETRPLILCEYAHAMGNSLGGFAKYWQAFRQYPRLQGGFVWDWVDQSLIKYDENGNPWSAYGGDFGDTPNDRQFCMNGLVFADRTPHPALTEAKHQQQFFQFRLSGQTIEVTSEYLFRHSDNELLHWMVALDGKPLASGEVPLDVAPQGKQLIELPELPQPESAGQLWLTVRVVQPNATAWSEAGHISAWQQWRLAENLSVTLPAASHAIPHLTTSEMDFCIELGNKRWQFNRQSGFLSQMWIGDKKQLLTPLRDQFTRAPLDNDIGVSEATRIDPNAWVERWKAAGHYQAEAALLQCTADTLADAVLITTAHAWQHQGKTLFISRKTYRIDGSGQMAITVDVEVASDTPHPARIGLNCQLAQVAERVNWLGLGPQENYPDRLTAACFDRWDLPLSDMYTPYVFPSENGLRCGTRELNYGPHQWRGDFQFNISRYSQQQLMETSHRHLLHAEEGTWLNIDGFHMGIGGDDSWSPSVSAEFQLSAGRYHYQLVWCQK
The nature of test [12]: antiviral protection against BTV-induced cell death – arbovirus, BSR cells, confirmation (AID 1250).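 Further: protection from viral cytopathic effect measured as cell viability by ATP luminescence.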 The class given is functional.
A short description of test [13]: M. tuberculosis H37Rv growth inhibitors, H37Rv strain (AID 1626). The test is classed as functional.

The source made the active and inactive calls. Bounds are passed on as bounds.

Chain of FAD-linked sulfhydryl oxidase ALR (P55789 whole entry): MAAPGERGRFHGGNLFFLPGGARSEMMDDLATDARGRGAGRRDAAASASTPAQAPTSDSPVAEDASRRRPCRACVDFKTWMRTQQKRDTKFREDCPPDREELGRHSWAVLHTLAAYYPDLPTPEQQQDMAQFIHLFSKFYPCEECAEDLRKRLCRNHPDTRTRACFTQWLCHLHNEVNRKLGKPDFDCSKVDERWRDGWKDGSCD
Chain of Genome polyprotein (P29990 2492-3391 limits assumed): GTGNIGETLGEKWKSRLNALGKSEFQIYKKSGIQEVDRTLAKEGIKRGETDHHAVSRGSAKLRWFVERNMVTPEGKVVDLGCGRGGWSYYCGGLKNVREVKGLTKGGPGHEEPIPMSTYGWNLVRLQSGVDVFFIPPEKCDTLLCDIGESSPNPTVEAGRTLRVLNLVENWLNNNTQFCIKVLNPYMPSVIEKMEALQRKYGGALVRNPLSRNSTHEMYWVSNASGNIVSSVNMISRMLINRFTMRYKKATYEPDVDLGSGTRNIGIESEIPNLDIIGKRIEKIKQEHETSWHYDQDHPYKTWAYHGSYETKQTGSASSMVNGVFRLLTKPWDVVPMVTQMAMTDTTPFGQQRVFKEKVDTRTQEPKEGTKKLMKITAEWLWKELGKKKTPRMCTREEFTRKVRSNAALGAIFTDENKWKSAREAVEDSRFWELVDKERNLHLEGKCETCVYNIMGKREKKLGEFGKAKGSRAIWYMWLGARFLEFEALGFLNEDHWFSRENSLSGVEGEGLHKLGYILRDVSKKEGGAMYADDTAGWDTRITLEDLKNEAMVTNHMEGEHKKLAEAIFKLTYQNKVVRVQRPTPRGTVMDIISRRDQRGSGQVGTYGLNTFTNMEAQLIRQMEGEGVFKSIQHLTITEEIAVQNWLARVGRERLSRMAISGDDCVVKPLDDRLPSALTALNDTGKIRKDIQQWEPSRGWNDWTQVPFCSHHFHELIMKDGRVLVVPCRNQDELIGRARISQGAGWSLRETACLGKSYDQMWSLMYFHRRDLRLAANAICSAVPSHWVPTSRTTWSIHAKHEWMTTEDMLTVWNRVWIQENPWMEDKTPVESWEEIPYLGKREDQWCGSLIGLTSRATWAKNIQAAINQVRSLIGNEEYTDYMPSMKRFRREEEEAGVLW

For orientation: EC50 means the concentration that produces a half-maximal response. As for `Cc1cc(C)nc(/N=C(\N)Nc2ccc(N)cc2)n1`, the EC50 in test [1] is 5.38 µM (active).
What is called IC50 is the concentration that inhibits the measured activity by half. The term AC50 denotes the concentration at which the activity in the assay is half-maximal. A word on the CC50: it is the concentration giving 50% cytotoxicity. Regarding `CN(C)S(=O)(=O)c1cccc(-c2nn(-c3ccccc3)cc2/C=C2\SC(=S)N(CC(=O)O)C2=O)c1`, the 50% inhibitory concentration (IC50) in [2] was 48.8 µM (active); in [3], 79.5 µM (active); in test [4] it was 4.8 µM (active). Also, in test [5], the concentration at half-maximal activity (AC50) is 15.5 µM (active). Further, in test [6], the half-maximal cytotoxic concentration (CC50) was > 40 µM (active).
Turning to `CCN(CC)CC#CCC(C)(c1ccccc1)c1ccccc1`, the IC50 in test [7] was 6.17 µM (active); in [8], < 12 µM (not active).
Turning to `COC(=O)C1CCN(C(=O)/C=C/c2ccc(OC)cc2)CC1`, the half-maximal effective concentration (EC50) in test [9] and in test [10] was > 49.7 µM (not active) each time. For the same compound, in test [11], the IC50 is > 80 µM (inactive).
Take `CCc1cc(C(=O)O)c(NC(=O)C(c2ccccc2)c2ccccc2)s1`: in [12], the half-inhibitory concentration (IC50) is 23.2 µM (active).
Regarding `CCOC(=O)c1ccc(NCc2ccc(N(C)C)cc2)cc1`, the half-maximal inhibitory concentration (IC50) in test [13] is > 100 µM (active).

Values taken from ChEMBL document CHEMBL1201862, “PubChem BioAssay data set” (2004).
